What was measured:
[1] = system: KCC2 expression (KCC2-2A-luciferase reporter); assay: KCC2-2A-luciferase reporter compound screening with RTT KCC2 reporter neurons; format: cell-based, human; details: MECP2-null RTT human KCC2 reporter neurons; LINCS, SMART, ICCB libraries; Luc/CTG normalized to in-plate DMSO; hit = B score >3
Experimental: The RTT KCC2-2A-luciferase reporter neurons were treated with the test compounds from the LINCS kinase inhibitor library and IRSF SMART compound library and incubated before being lysed. The cell lysate was divided into two parts to measure luciferase signal (KCC2 translation) and Cell-Titer Glow (CTG, amount of ATP). The luciferase signal was normalized to CTG for each well, and the Luc/CTG ratio was normalized to the in-plate DMSO negative control to calculate fold change ratio.
Additional screens for reporter activation in the MECP2-null RTT human KCC2 reporter neurons (isogenic to the WT reporter cells used above) were performed with the LINCS and SMART libraries as well as the ICCB known bioactive library and identified hits as compounds with B score >3.
The cells were dissociated with Accutase and resuspended in 10 ml neuronal differentiation medium to count cells. The cells were then diluted to the final density of 200,000 to 500,000 cells/ml. Matrigel was added to the cell suspension at a dilution ratio of 1:300 to promote cell adhesion after plating. AraC was added to cell suspension at the concentration of 2 μM to inhibit cell division. The cells were plated into 96-well plates with an automated cell seeding machine using the following protocol: The neuron flask was washed with PBS. The neurons were digested off the plate with Accutase for 30 minutes at 37° C. Next, the dissociated cells were collected and spun down at 750 rpm for 5 minutes. The cell pellet was dissociated by gentle trituration with P1000 pipet and the cells were resuspended with 10 ml of neuronal medium. Then, the cells were filtered through a 40 μm cell strainer (Falcon) to get rid of clumps. The resulting single-cell suspension was counted using a Countess automated cell counter (Invitrogen Countess Automated Cell Counter, Catalog no. C10227). The neurons were resuspended with neuronal medium to 10× of the destination density (100,000 cells to 400,000 cells per ml). The cells were plated with a multichannel pipette, or proceeded to the machine-plating protocol described below:
The day after cell seeding, small molecule compounds from the IRSF (International Rett Syndrome Foundation) library were prepared at a concentration of 1 mM and dispensed into a blank V-bottomed test plates at 2 μl per well. Compound solvent DMSO was included in every plate as control. Using a liquid handling robot, about 80 μl of culture medium were discarded. Neuronal medium in the volume of 200 μl was added to the V-bottom test plate that contained 2 μl of 1 mM compounds, and mixed with compounds by pipetting up-and-down 3 times. The medium that contained the 10 μM compounds was then applied to the neuronal cell culture and incubated for 2 weeks before cell lysis and luciferase assay were performed.
(§1) The cells were dissociated with Accutase, resuspended in 10 ml neuronal differentiation medium to count cells. the final cell seeding density was 20 k-40 k cells per well for 96-well plates, and ˜10 k cells per well for 384-well plates. Matrigel was added to the cell suspension at a dilution ratio of 1:300 to promote cell adhesion after plating. AraC were added to the cell suspension at the concentration of 0.5 μM to inhibit astroglial cell division. The cells were dispensed into 96-well or 384-well plates (Coming) using a BioTek EL406 plate dispenser. […] The neurons were incubated with the compounds at 37° C./5% CO2 for a week before the luciferase assay.
The cells used for luciferase assay were KCC2 reporter neurons differentiated for 4 weeks, and treated with drug in 96-well format for 2 weeks. Cell density was between 20 k-40 k cells per well.
On the day of the luciferase assay, the cells were washed with PBS for two times, and 100 μl of cell lysis buffer was applied to the washed cells. The cell plates were transferred to a rocker to shake for 10 minutes in order to fully lyse the cells.

[2] = system: KCC2 expression (KCC2-2A-luciferase reporter); assay: KCC2-2A-luciferase reporter compound screening with wild type KCC2 reporter neurons; format: cell-based; details: WT human KCC2 reporter neurons; LINCS 0.5 μM, IRSF/SMART and ICCB 10 μM, one week; Luc/CTG normalized to in-plate DMSO; hit = B score >3
Source text: In addition, CRISPR/Cas9 genome editing technology was utilized to insert a 2A-luciferase reporter gene directly before the stop codon of the endogenous KCC2 locus in human ES cells, thus creating wild type (WT) cells isogenic to the MECP2-null RTT human KCC2 reporter neurons. KCC2 expression reporter human neurons were differentiated from the gene-targeted ES cells and utilized as the substrate for unbiased compound screening (FIG. 6A; see also FIG. 1A).
Gene-targeted KCC2 reporter cells were used in a HTS pipeline to screen for small molecule compounds that enhance KCC2 gene expression (FIG. 1B; note that reporter neurons were adapted to 384 well format for some screens, and the same workflow was used both for WT KCC2 reporter neurons and RTT KCC2 reporter neurons). Six replicate screens were performed in WT KCC2 reporter neurons using the LINCS and SMART libraries as well as the ICCB known bioactive library (FIG. 6B).
as §1
For some screens, on the day of the luciferase assay, the cells were washed with PBS three times using a BioTek EL406 plate washer. Cell lysis buffer (Promega, E1941, 1:5 diluted with water) was added at a volume of 100 μl per well for 96-well plates and 30 μl per well for 384-well plates, and incubated at room temperature for 10 minutes to lyse the cells. A fraction of the cell lysate (30 ul for 96-well, 5 ul for 384-well) was transferred to a new white, opaque plate and Cell Titer-Glo (CTG, Promega, G7572, diluted 2:5 in water) was added and incubated for 20 minutes at room temperature. CTG measures cellular ATP levels as a surrogate for cell viability. The reporter luciferase signal was assayed in the original source plate using Bright-Glo reagent per the manufacturer's protocol (Promega, E1501, 10 ul for 96-well plates, 3 ul for 384-well plates). Assay readouts were performed on a Tecan M1000 Infinite plate reader. For data analysis, the luciferase signal was normalized to the CTG signal to control for number of live cells per well. The Luc/CTG ratio data were then normalized to the in-plate DMSO control to calculate the signal induction fold change. Screening data were processed with CellHTS2 software package to calculate B-score (94)

[3] = system: human RTT neurons; assay: mEPSC whole-cell patch-clamp recording in cultured human RTT neurons; format: cell-based; details: cultured human RTT neurons
Source text: (§2) Moreover, a reduction in the number or the strength of excitatory glutamatergic synapses in RTT neurons has been observed in postmortem RTT patient brain samples (30), mouse models of RTT (53), and human stem cell-derived RTT neurons (54). Electrophysiology recording was utilized to assess whether KEECs could rescue the deficits in EGABA and excitatory synaptic transmission of RTT neurons. […] We further investigated whether the beneficial effect of KEECs is a direct result of the increases in neuronal KCC2 gene expression. […] Deficits in a number of morphological measurements, including nuclei size and neurite complexity and branching, are hallmarks of RTT neurons (54-56). […] To validate the morphological measurements, electrophysiological measurements of the neuronal membrane capacitance (Cm), an indicator of neuronal cell size (57) that is reduced in RTT neurons, were conducted.
(§3) Functionally mature human neuron cultures were obtained by seeding human WT or isogenic RTT NPCs on a layer of primary mouse astrocyte culture as previously described (57). In the cultured WT human neurons, KCC2 expression reaches mature level between 2-3 months (7). We therefore treated the WT or RTT human neurons 8-12 weeks in culture, with compounds for a duration of two weeks before conducting whole-cell patch-clamp recording. The extracellular bath solution, that perfused the recording chamber, consists of (in mM): 120 NaCl, 30 glucose, 25 HEPES, 5 KCl, 2 CaCl2, 1 MgCl2. The pH was adjusted to 7.3 with NaOH. The high-chloride internal pipette solution consists of (in mM): 147 KCl, 5 Na-phosphocreatine, 2 EGTA, 10 HEPES, 4 MgATP, and 0.5 Na2GTP; the pH 7.3 was adjusted with KOH. To record mini EPSC, the membrane potential was held at −70 mV, and 0.5 μM of TTX and 50 μM Picrotoxin were applied with bath solution to block action potential and GABAergic synaptic transmission.
To evoke GABA response, a pipette filled with 100 μM GABA solution was positioned 5-10 μm away from the neuronal cell body. Air pulses at the pressure of 10 p.s.i. and duration of 100 ms were generated with a Picrospritzer (Parker Instrumentation) to puff GABA solution onto neuronal cell body. Neuronal response to GABA puffs were recorded at different membrane holding potentials from −90 mV to +30 mV, and the EGABA values were calculated with linear regression. Electrophysiological signals were recorded with Multiclamp 700A patch-clamp amplifier and data were collected with Clamp 9 software (Molecular Devices, Palo Alto, CA), sampled at 10 kHz and filtered at 1 KHz. Off-line data analyses of mEPSC synaptic events were performed with MiniAnalysis software (Synaptosoft, Decator, GA). All experiments were performed at room temperature. A sample size of 5-8 neurons was used for EGABA measurements, while a sample size of 14-19 neurons was used for mEPSC measurements. All data were presented as mean±SEM. ANOVA test followed by the Bonferroni correction were used for statistical analysis. The Kolmogorov-Smirnov test was employed to compare the cumulative distribution between two datasets.

[4] = system: KCC2 expression; assay: Western blot of KCC2 in cultured WT human neurons; format: cell-based
[5] = system: KCC2 expression; assay: Western blot of KCC2 in organotypic mouse brain slices; format: cell-based; details: organotypic neonatal mouse brain slices, treated 7 days, vs DMSO, MeBIO or medium-only control
[6] = system: human RTT neurons; assay: Membrane capacitance (Cm) of cultured human RTT neurons; format: cell-based; details: cultured human RTT neurons; vs DMSO or MeBIO control
Source text: as §2, §3

[7] = system: immature mouse neurons; assay: Gramicidin-perforated patch recording of EGABA in DIV6-7 immature mouse neurons; format: cell-based
[8] = system: KCC2 expression; assay: Western blot of KCC2 in cultured human RTT neurons; format: cell-based; details: cultured human RTT neurons; Western blot
Experimental: Protein samples were collected from cultured brain slices or cultured neurons in 12-well format with RIPA lysis buffer (in mM: 150 NaCl, 25 Tris-HCl, 1 EDTA, 1% NP-40, 1% sodium deoxycholate, 0.1% SDS, with protein kinase inhibitor and protease inhibitor, pH adjusted to 7.6). A sonication step was applied to homogenize tissue and extract protein, followed by a 10 minute centrifugation at 4° C. […] The PVDF membrane was blocked for 30 minutes with 5% milk in TBS+0.1% Tween 20 (TBST), and incubated overnight at 4° C. with primary antibodies diluted in TBST-milk at the following concentrations: KCC2 (1:2000, Millipore), NKCC1 (1:1000, Iowa Hybridoma bank), α-Tubulin (1:4000, Abcam), GAPDH (1:3000, Abcam), Actin (1:2000, Sigma Aldrich #A2066). The membrane was rinsed with TBST three times to wash off excess antibodies, and then incubated in secondary HRP antibodies in TBST-milk at 1:5000 concentration.
The PVDF membrane was then stripped using the Re-blot plus strong solution (Millipore), and re-immunoblotted for NKCC1 (˜150 kDa) to acquire KCC2/NKCC1 ratio. The area and intensity of protein signal was determined using ImageJ. The relative KCC2 and NKCC1 expression were calculated by normalizing protein signal to GAPDH or Tubulin loading control.

Compound	B Score [1]	B Score [2]	other results
O=C1Nc2ccccc2/C1=C1/Nc2ccccc2C1=O [Indirubin, (3Z)-3-(3-Oxo-1,3-dihydro-2H-indol-2-ylidene)-1,3-dihydro-2H-indol-2-one]	3.73	3.73	
CN1C(=O)/C(=C2\Nc3ccccc3\C2=N/O)c2ccc(Br)cc21 [MeBIO]			frequency of mEPSCs [3]: failed to rescue synaptic deficits in RTT neurons; KCC2 expression ([4]; cultured WT human neurons (WIBR1), Western blot): failed to activate KCC2 expression; KCC2 protein level [5]: does not alter KCC2 expression; membrane capacitance (Cm) [6]: failed to change Cm
COC1=CC(=O)O[C@@H](/C=C/c2ccc3c(c2)OCO3)C1 [Methysticin, (2R)-2-[(E)-2-(1,3-Benzodioxol-5-yl)ethenyl]-4-methoxy-2,3-dihydropyran-6-one]	7.17	7.17	
CC(C)(O)[C@H]1O[C@H]2CC[C@@]3(C)[C@@](O)(CC[C@H]4Cc5c([nH]c6ccccc56)[C@@]43C)C2=CC1=O [Paxilline, (2R,4bS,6aS,12bS,12cR,14aS)-5,6,6a,7,12,12b,12c,13,14,14a-Decahydro-4b-hydroxy-2-(1-hydroxy-1-methylethyl)-12b,12c-dimethyl-2H-pyrano[2″,3″:5',6']benz[1',2':6,7]indeno[1,2-b]indol-3(4bH)-one]	4.1	4.1	
C[C@H](NCc1ccc(OCc2cccc(F)c2)cc1)C(N)=O [Safinamide, (2S)-2-[[4-[(3-fluorophenyl)methoxy]phenyl]methylamino] propanamide]	4.82	4.82	
Nc1cccc(-c2cc3c(Oc4cccc(O)c4)ncnc3[nH]2)c1 [TWS-119, 3-[6-(3-Amino-phenyl)-7H-pyrrolo[2,3,-d]pyrimidin-4-yloxy]-phenol]	3.64		EGABA after treatment ([7]; DIV6-7 immature mouse neurons, untreated about −50 mV): about −70 mV; significant hyperpolarizing shift in EGABA ([7]; DIV6 cultured immature mouse neurons): induces significant hyperpolarizing shift in EGABA; increase of KCC2 expression ([4]; WT neurons, 0.03 μM): more than two-fold; KCC2 expression [8]: significant increase in KCC2 expression

Reference: patent publication US12053465B2, “KCC2 expression enhancing compounds and uses thereof” (Whitehead Institute for Biomedical Research, priority 2017, dated 2024)
